Laboratory results as given in US12325697B2 (Nimbus Clio, Inc., priority 2021, dated 2025).

Biological target: Recombinant human Cbl-b (aa 36-427) (Homo sapiens (Human), UniProt Q13191)
Assay: Cbl-b Biochemical Assay (TR-FRET)
Conditions: read-out: TR-FRET hCbl-b IC50
Outline: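 IC50 from 4-parameter fit of % inhibition (DMSO max, reference-inhibitor min), duplicate ten-point series. Compound preincubated with 6 nM Cbl-b, then Src-Zap70 (1-2.5 nM)/0.5 mM ATP reaction 60 min RT; EDTA quench with labelled UBE2D2-Ub and streptavidin-terbium, 60 min, HTRF at 520 nm.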

Chain of Recombinant human Cbl-b (aa 36-427) (Q13191 36-427): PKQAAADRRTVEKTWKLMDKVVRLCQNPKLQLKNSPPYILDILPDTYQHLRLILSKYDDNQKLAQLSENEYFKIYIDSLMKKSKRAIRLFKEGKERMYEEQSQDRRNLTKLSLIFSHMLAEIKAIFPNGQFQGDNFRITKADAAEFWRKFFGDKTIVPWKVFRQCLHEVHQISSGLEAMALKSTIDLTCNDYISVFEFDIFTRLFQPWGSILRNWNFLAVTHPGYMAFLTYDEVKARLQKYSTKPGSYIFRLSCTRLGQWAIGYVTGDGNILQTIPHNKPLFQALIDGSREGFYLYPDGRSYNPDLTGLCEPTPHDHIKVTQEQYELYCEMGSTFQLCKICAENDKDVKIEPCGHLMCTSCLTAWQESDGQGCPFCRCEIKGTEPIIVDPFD

Row | Compound | IC50 [µM]
1 | CCNc1cc(-c2ccccc2-c2nncn2C)cc(N2Cc3c(cc(CN4CC(F)C4)cc3C(F)(F)F)C2=O)n1 [AG-1, 2-(6-(Ethylamino)-4-(2-(4-methyl-4H-1,2,4-triazol-3-yl)phenyl)pyridin-2-yl)-6-((3-fluoroazetidin-1-yl)methyl)-4-(trifluoromethyl)isoindolin-1-one] | ≤ 0.2
2 | CCNc1cc(-c2ccccc2-c2nncn2C)cc(N2Cc3c(cc(CN4CCC5(CC4)CC5)cc3C(F)(F)F)C2=O)n1 [AI-2, 6-((6-Azaspiro[2.5]octan-6-yl)methyl)-2-(6-(ethylamino)-4-(2-(4-methyl-4H-1,2,4-triazol-3-yl)phenyl)pyridin-2-yl)-4-(trifluoromethyl)isoindolin-1-one] | ≤ 0.2
3 | CCNc1cc(-c2ccccc2-c2nncn2C)cc(N2Cc3c(cc(CN4CC[C@H](F)C4)cc3C(F)(F)F)C2=O)n1 [AJ-1, (S)-2-(6-(Ethylamino)-4-(2-(4-methyl-4H-1,2,4-triazol-3-yl)phenyl)pyridin-2-yl)-6-((3-fluoropyrrolidin-1-yl)methyl)-4-(trifluoromethyl)isoindolin-1-one] | ≤ 0.2
4 | CCNc1cc(-c2ccccc2-c2nncn2C)cc(N2Cc3c(cc(CN4CCC(F)(F)C(C)C4)cc3C(F)(F)F)C2=O)n1 (stereo not shown) [AK-2, 6-((4,4-Difluoro-3-methylpiperidin-1-yl)methyl)-2-(6-(ethylamino)-4-(2-(4-methyl-4H-1,2,4-triazol-3-yl)phenyl)pyridin-2-yl)-4-(trifluoromethyl)isoindolin-1-one] | ≤ 0.2
5 | CCNc1cc(-c2ccccc2-c2nncn2C)cc(N2Cc3c(cc(CN4CCO[C@@H](C)C4)cc3C(F)(F)F)C2=O)n1 [AL-1, (S)-2-(6-(Ethylamino)-4-(2-(4-methyl-4H-1,2,4-triazol-3-yl)phenyl)pyridin-2-yl)-6-((2-methylmorpholino)methyl)-4-(trifluoromethyl)isoindolin-1-one] | ≤ 0.2
6 | CCNc1cc(-c2ccccc2-c2nncn2C)cc(N2Cc3c(cc(CN4CCOCC4)cc3C(F)(F)F)C2=O)n1 [AM-2, 2-(6-(Ethylamino)-4-(2-(4-methyl-4H-1,2,4-triazol-3-yl)phenyl)pyridin-2-yl)-6-(morpholinomethyl)-4-(trifluoromethyl)isoindolin-1-one] | ≤ 0.2
7 | CCNc1cc(-c2ccccc2-c2nncn2C)cc(N2Cc3c(cc(CN4CCO[C@H](C)C4)cc3C(F)(F)F)C2=O)n1 [AN-1, (R)-2-(6-(Ethylamino)-4-(2-(4-methyl-4H-1,2,4-triazol-3-yl)phenyl)pyridin-2-yl)-6-((2-methylmorpholino)methyl)-4-(trifluoromethyl)isoindolin-1-one] | ≤ 0.2
8 | CCNc1cc(-c2ccccc2-c2nncn2C)cc(N2Cc3c(cc(CN[C@@H]4CCC[C@H]4O)cc3C(F)(F)F)C2=O)n1 [AO-1, 2-(6-(Ethylamino)-4-(2-(4-methyl-4H-1,2,4-triazol-3-yl)phenyl)pyridin-2-yl)-6-((((1R,2R)-2-hydroxycyclopentyl)amino)methyl)-4-(trifluoromethyl)isoindolin-1-one] | ≤ 0.2
9 | CCNc1cc(-c2ccccc2-c2nncn2C)cc(N2Cc3c(cc(CN[C@H]4CCC[C@@H]4O)cc3C(F)(F)F)C2=O)n1 [AP-1, 2-(6-(Ethylamino)-4-(2-(4-methyl-4H-1,2,4-triazol-3-yl)phenyl)pyridin-2-yl)-6-((((1S,2S)-2-hydroxycyclopentyl)amino)methyl)-4-(trifluoromethyl)isoindolin-1-one] | ≤ 0.2
10 | CCNc1cc(-c2ccccc2-c2nncn2C)cc(N2Cc3c(cc(CN[C@@H]4CCC[C@@H]4O)cc3C(F)(F)F)C2=O)n1 [AQ-1, 2-(6-(Ethylamino)-4-(2-(4-methyl-4H-1,2,4-triazol-3-yl)phenyl)pyridin-2-yl)-6-((((1R,2S)-2-hydroxycyclopentyl)amino)methyl)-4-(trifluoromethyl)isoindolin-1-one] | ≤ 0.2
